According to patent US20090124656A1, “Heterocyclic Oxime Compounds a Process for Their Preparation and Pharmaceutical Compositions Containing Them” (LES LABORATOIRES SERVIER, priority 2005, published 2009):

Test system: ob/ob mouse
Test: Antidiabetic and hypolipaemic effect in the ob/ob mouse
Assay type: in vivo
Details: dose of 3 mg/kg for 4 days
Source text: Mutations in laboratory animals and also different sensitivities to dietary regimens have allowed the development of animal models having non-insulin-dependent diabetes and hyperlipidaemia associated with obesity and with resistance to insulin.
Genetic mice models (ob/ob) (Diabetes, 1982, 31 (1), 1-6) and Zucker (fa/fa) rats have been developed by various laboratories in order to understand the physiopathology of those diseases and test the effectiveness of new antidiabetic compounds (Diabetes, 1983, 32, 830-838).
Antidiabetic and Hypolipaemic Effect in the ob/ob Mouse
The 10-week-old female ob/ob mouse (Harlan) is used for the in vivo tests. The animals are kept in a light-darkness cycle of 12 hours at 25° C. The mouse has a basal hyperglycaemia of 2 g/l. The animals are randomly selected with regard to their glycaemia to form groups of six. […] […] The control groups receive the solvents under the same conditions as the treated groups.
The activity of the products is evaluated by measuring glycaemia 24 hours after the final administration and by measuring body weight daily.

## CCOC(Cc1ccc(OCCN2CCC(C)(C)c3cc(C(=O)C4CCCCC4)ccc32)cc1)C(=O)O (stereo not drawn) [3-{4-[2-(6-(Cyclohexylcarbonyl)-4,4-dimethyl-3,4-dihydro-1(2H)-quinolinyl)ethoxy]phenyl}-2-ethoxypropanoic acid]
  reduction in glycaemia: 32%
  reduction in insulinaemia: 56%
  reduction in triglyceridaemia: 57%
